In brackets after ≈: the same amount, converted by molar mass. Several values for one entry are separate records, joined by “and”; a condition that tells them apart may be missing. Equal entries are not always repeated. Where a SMILES comes first, the peptide text is derived from it. Bridges are numbered along the chain shown (N, C = ends). [ ]: non-standard residue; d: D form. The star is where a group is joined. Hexanoyl(3R-OH,5-Me) = CC(C)C[C@@H](O)CC(=O)*; dNMeF = CN[C@H](Cc1ccccc1)C(=O)O; dOrn = NCCC[C@@H](N)C(=O)O
Experiments:
[1] = tested on: Staphylococcus aureus MSSA1; settings: 10% BCS
Procedure: Evaluation of antimicrobial spectra of peptides. The MIC assay was performed according to the Clinical and Laboratory Standards Institute protocols. The antimicrobial activities of the peptides were measured using the broth microdilution method.1 Serial dilutions of peptides were prepared in cation adjusted Müller Hinton Broth. Each dilution (100 µL) was dispensed to each well of the round-bottom plate to obtain final concentrations ranging from 64 µg/m L to 0.0075 µg/m L. Bacteria were grown at 37 °C overnight on Tryptic Soy Broth or Müller Hinton Broth agar plates. Bacterial inoculum was prepared by direct suspension of the colonies in 0.9% saline, and adjusted to obtain OD 625 0.08–0.13 using a spectrophotometer UV -1280 (Shimadzu). The resultant suspension was diluted with cation adjusted Müller Hinton Broth (1/20). The resultant mixture (10 µL) was inoculated to each well of the plates (approximately 5 ×10^4 CFU/well ), mixed, and incubated at 37 °C for 18 h. The MIC value was determined as the minimum concentration that inhibited growth of bacteria. To evaluate the antimicrobial activities of peptides in the presence of serum, 10% bovine calf serum in cation adjusted Müller Hinton Broth was used.

[2] = On-bead menaquinone complexation assay (fluorescence of 2H); assay type: binding; settings: single library bead (hit beads >1000 a.u.), average of three readings
Procedure: Next, the feasibility of the on-bead complexation assay was assessed using bead-linked lysocin E 30 and MK-4 (2). Our initial assay based on the finding that 1 and 2 form a red precipitate upon complexation (Supplementary Fig. 2) was not robust, because the magnitude of the red color was not proportional to the amount of captured 2 (Fig. 2b, c). We therefore developed a fluorescence-based method for quantifying 2 by reducing its naphthoquinone moiety to fluorescent hydroquinone 2H. One bead of 30 was incubated with 2 in MeOH, washed by MeOH in a microplate well, and then the bead-bound 2 was eluted under more forcing hydrophobic conditions (n-BuOH at 50 °C). The eluate containing 2 was treated with NaBH4 in n-BuOH to produce 2H[46]. The fluorescence intensity of 2H was evaluated to determine the quantity of 2 bound to one bead of 30. The method was found with a small margin of error (1026 ± 64 a.u.), indicating its high accuracy (Fig. 2a and Supplementary Fig. 3). Importantly, the structure of 1 remained intact during the complexation assay as judged by UHPLC and mass analyses.
General procedures for menaquinone complexation assay. To the bead-linked lysocin E analogues in LibraTube was added a solution of menaquinone-4 (2) in MeOH (10 mM, 1.0 mL/1000 beads). The mixture was incubated at room temperature for 12 h. A suspension of the beads in MeOH (200 beads/200 µL) was transferred to a 2.0 mL microtube.
Each bead in the microtube was transferred to each well of a 96-well filtration plate (278011, Thermo Fisher Scientific, 1 bead/well) with the solution of 2 (20 µL/bead) using a micropipette. To each well was added MeOH (400 µL), and the beads was filtered by gravity flow (× 3). The beads in the plate were dried under vacuum for 0.5–1 h. The dried beads were transferred to a 96-well PCR plate (652270, Greiner bio-one, 1 bead/well) with MeOH (20 µL/well) using a micropipette. The solution was removed under a stream of Ar at 40 °C to give the 2-bound bead-linked peptides.
To the 2-bound bead-linked peptides in the plate was added n-BuOH (30 µL/well) at room temperature .
The suspension was incubated at 50 °C for 1 h. The resultant mixture in the plate was centrifuged at 3500 × g at room temperature for 10 sec . The supernatant in each well was transferred to the corresponding well of a black polystyrene flat -bottom 96-well plate (655086, Greiner bio-one). The solution was concentrated under a stream of Ar at 40 °C to give the eluted 2.
To the above eluted 2 in the plate was added n-BuOH (25 µL/well) at room temperature. The plate was vortexed at room temperature for 10 min. To the resultant solution was added a solution of NaBH4 in n-BuOH (1.0 mM, 25 µL/well). The plate was vortexed at room temperature for 10 min. The fluorescence of menahydroquinone (2H, Ex. 250 nm/Em. 430 nm) of each well was measured at room temperature every 3 min (0, 3, and 6 min) on Gemini EM microplate reader (Molecular Devices) . The three fluorescence intensities of each bead were averaged and plotted against the bead number.
Evaluation of menaquinone complexation activities of the selected bead-linked peptides. Bead-linked peptides 30, BLP1, and BLP2 were synthesized according to the above described procedures (loading rate:
0.222 mmol/g). The bead-linked peptides were subjected to the MK complexation assay described above.
The obtained fluorescent intensities of 2H (arbitrary unit) were 1026 ± 64 for 30, 396 ± 27 for BLP1, 72.9 ± 2.0 for BLP2, and 41.6 ± 0.1 for background adsorption (no bead), respectively (Supplementary Figure 3).

[3] = tested on: S. aureus Smith ATCC 13709; assay: Antimicrobial activity assay of bead-derived peptides (one-bead, microscale); assay type: cell-based, Staphylococcus aureus; set-up: key to antimicrobial activity: ++: inhibition; +: partial inhibition; -: no inhibition; settings: 85% of one-bead-derived crude peptide, 40 μL Mueller Hinton Broth with 10% calf serum, 37 °C, 18 h
Procedure: Finally, a microscale antimicrobial assay was developed to evaluate the activity of 1 in solution phase.
Antimicrobial activity assay of bead-derived peptides. To the crude peptides in the 96-well round-bottom plate was added DMSO (1 µL/well). To the solution of peptides in each well was added a suspension of S. aureus Smith ATCC 13709 strain in 10% calf serum containing cation adjusted Müller Hinton Broth [40 µL, 2 ×10^5 colony forming units (CFU) , 21 g/L Müller Hinton Broth (Difco), 5 0 mg/L Ca2+ (adjusted with CaCl2• 2H2O), and 25 mg/L Mg 2+ (adjusted with MgCl 2•6H2O)]. The plate was incubated at 37 °C for 18 h, and the precipitation of the grown cells was examined. […]

[4] = tested on: MRSA4; assay type: cell-based, Staphylococcus aureus; settings: 18 h
Procedure: Antimicrobial activity assay of bead-derived peptides. […]
plate was added DMSO (1 µL/well). […]
precipitation of the grown cells was examined.
Evaluation of antimicrobial spectra of peptides. The MIC assay was performed according to the Clinical and Laboratory Standards Institute protocols. The antimicrobial activities of the peptides were measured […]
Soy Broth or Müller Hinton Broth agar plates. Bacterial inoculum was prepared by direct suspension of the […]
and incubated at 37 °C for 18 h. […]
inhibited growth of bacteria.

Row | MIC [4] [µg/mL] | Structure (SMILES) | antimicrobial activity relative to parent 1 [1] [fold] | fluorescence intensity of 2H [2] [a.u.] | antimicrobial activity [3] | further results
1 | 0.25 (≈ 0.156 µM) | CC[C@H](C)[C@@H]1NC(=O)[C@@H](Cc2c[nH]c3ccccc23)NC(=O)[C@@H](CCC(N)=O)NC(=O)[C@H](CCC(=O)O)NC(=O)[C@@H](CCCNC(=N)N)NC(=O)[C@H](CC(C)C)NC(=O)[C@@H](Cc2ccccc2)N(C)C(=O)CNC(=O)[C@H](C)NC(=O)[C@@H](CCCNC(=N)N)NC(=O)[C@@H](NC(=O)C[C@H](O)CC(C)C)[C@@H](C)OC(=O)[C@H]([C@@H](C)O)NC1=O [Peptide A1] ({Hexanoyl(3R-OH,5-Me)}-T[dR]AG[dNMeF]L[dR]E[dQ][dW]IT; ester 1-C) | 4 | 1237.12 | + | 
2 | 0.25 (≈ 0.159 µM) | CC[C@H](C)[C@@H]1NC(=O)[C@@H](Cc2c[nH]c3ccccc23)NC(=O)[C@@H](C(C)C)NC(=O)[C@H](CCC(=O)O)NC(=O)[C@@H](CCCNC(=N)N)NC(=O)[C@H](CC(C)C)NC(=O)[C@@H](Cc2ccccc2)N(C)C(=O)CNC(=O)[C@H](C)NC(=O)[C@@H](CCCNC(=N)N)NC(=O)[C@@H](NC(=O)C[C@H](O)CC(C)C)[C@@H](C)OC(=O)[C@H]([C@@H](C)O)NC1=O [Peptide A2] ({Hexanoyl(3R-OH,5-Me)}-T[dR]AG[dNMeF]L[dR]E[dV][dW]IT; ester 1-C) | 4 | 1152.24 | ++ | 
3 | 0.125 (≈ 0.0767 µM) | CC[C@H](C)[C@@H]1NC(=O)[C@@H](Cc2c[nH]c3ccccc23)NC(=O)[C@@H](C(C)C)NC(=O)[C@H](CCC(=O)O)NC(=O)[C@@H](CCCNC(=N)N)NC(=O)[C@H](CC(C)C)NC(=O)[C@@H](Cc2ccccc2)N(C)C(=O)CNC(=O)[C@H](CCCCN)NC(=O)[C@@H](CCCNC(=N)N)NC(=O)[C@@H](NC(=O)C[C@H](O)CC(C)C)[C@@H](C)OC(=O)[C@H]([C@@H](C)O)NC1=O [Peptide A3] ({Hexanoyl(3R-OH,5-Me)}-T[dR]KG[dNMeF]L[dR]E[dV][dW]IT; ester 1-C) | 4 |  |  | fluorescence intensity of 2H ([2]; listed as KLVI): 1439.45 a.u. and 1379.53 a.u.; antimicrobial activity ([3]; listed as KLVI): ++ and +
4 |  | CC[C@H](C)[C@@H]1NC(=O)[C@@H](Cc2c[nH]c3ccccc23)NC(=O)[C@@H](CCCN)NC(=O)[C@H](CCC(=O)O)NC(=O)[C@@H](CCCNC(=N)N)NC(=O)[C@H](CC(C)C)NC(=O)[C@@H](Cc2ccccc2)N(C)C(=O)CNC(=O)[C@H](Cc2ccc(O)cc2)NC(=O)[C@@H](CCCNC(=N)N)NC(=O)[C@@H](NC(=O)C[C@H](O)CC(C)C)[C@@H](C)OC(=O)[C@H]([C@@H](C)O)NC1=O [Peptide A7] ({Hexanoyl(3R-OH,5-Me)}-T[dR]YG[dNMeF]L[dR]E[dOrn][dW]IT; ester 1-C) |  |  |  | fluorescence intensity of 2H ([2]; listed as YLOI): 1035.66 a.u. and 1123.94 a.u.; antimicrobial activity ([3]; listed as YLOI): + and ++
5 |  | CC[C@H](C)[C@@H]1NC(=O)[C@@H](Cc2c[nH]c3ccccc23)NC(=O)[C@@H](CCCN)NC(=O)[C@H](CCC(=O)O)NC(=O)[C@@H](CCCNC(=N)N)NC(=O)[C@H](CC(C)C)NC(=O)[C@@H](Cc2ccccc2)N(C)C(=O)CNC(=O)[C@H](CC(N)=O)NC(=O)[C@@H](CCCNC(=N)N)NC(=O)[C@@H](NC(=O)C[C@H](O)CC(C)C)[C@@H](C)OC(=O)[C@H]([C@@H](C)O)NC1=O [Peptide A14] ({Hexanoyl(3R-OH,5-Me)}-T[dR]NG[dNMeF]L[dR]E[dOrn][dW]IT; ester 1-C) |  | 1470.92 | + | 
6 |  | CC(C)C[C@@H](O)CC(=O)N[C@@H]1C(=O)N[C@H](CCCNC(=N)N)C(=O)N[C@@H](C)C(=O)NCC(=O)N(C)[C@H](Cc2ccccc2)C(=O)N[C@@H](CC(C)C)C(=O)N[C@H](CCCNC(=N)N)C(=O)N[C@@H](CCC(=O)O)C(=O)N[C@H](Cc2ccc(O)cc2)C(=O)N[C@H](Cc2c[nH]c3ccccc23)C(=O)N[C@@H](Cc2ccc(O)cc2)C(=O)N[C@@H]([C@@H](C)O)C(=O)O[C@@H]1C [Peptide A15] ({Hexanoyl(3R-OH,5-Me)}-T[dR]AG[dNMeF]L[dR]E[dY][dW]YT; ester 1-C) |  | 1125.25 | + | 
7 |  | CC[C@H](C)[C@@H]1NC(=O)[C@@H](Cc2c[nH]c3ccccc23)NC(=O)[C@@H](CCCN)NC(=O)[C@H](CCC(=O)O)NC(=O)[C@@H](CCCNC(=N)N)NC(=O)[C@H](CC(C)C)NC(=O)[C@@H](Cc2ccccc2)N(C)C(=O)CNC(=O)[C@H](CC(=O)O)NC(=O)[C@@H](CCCNC(=N)N)NC(=O)[C@@H](NC(=O)C[C@H](O)CC(C)C)[C@@H](C)OC(=O)[C@H]([C@@H](C)O)NC1=O [Peptide A16] ({Hexanoyl(3R-OH,5-Me)}-T[dR]DG[dNMeF]L[dR]E[dOrn][dW]IT; ester 1-C) |  | 1414.45 | + | 
8 |  | CC[C@H](C)[C@@H]1NC(=O)[C@@H](Cc2c[nH]c3ccccc23)NC(=O)[C@@H](Cc2ccc(O)cc2)NC(=O)[C@H](CCC(=O)O)NC(=O)[C@@H](CCCNC(=N)N)NC(=O)[C@H](CC(C)C)NC(=O)[C@@H](Cc2ccccc2)N(C)C(=O)CNC(=O)[C@H](CC(=O)O)NC(=O)[C@@H](CCCNC(=N)N)NC(=O)[C@@H](NC(=O)C[C@H](O)CC(C)C)[C@@H](C)OC(=O)[C@H]([C@@H](C)O)NC1=O [Peptide A17] ({Hexanoyl(3R-OH,5-Me)}-T[dR]DG[dNMeF]L[dR]E[dY][dW]IT; ester 1-C) |  | 1396.02 | + | 
